This is an account of results in patent US11730731B2 (INVENTAGE LAB INC., priority 2021, dated 2023).

Data set [1] is described as follows: Safety assessment in vivo by body weight, CIA mice. To be noted: Example 3, CIA mouse, MTX 1 mg/kg ip twice/week, Xeljanz 10 mg/kg oral once/day, MTX 1 mg/kg + Q-DDS 3 mg/mouse; for D23 body weight Mean: day 23 (baseline); for D41 body weight Mean: day 41; for Change of body weight (%, D23 body weight 100%) Mean: day 41 vs day 23. The method, then:
The safety in vivo of the test substance was evaluated by measuring the body weight of mouse in each administration group of Example 4.1.
For the safety evaluation of the test substance, the body weight of mouse was measured daily from before the start of administration (The 23th day) to just before the end of administration (The 41th day), and the body weight (%) of the mouse for each administration group over the time (day) and the body weight on the 41th day were shown in FIG. 16A, FIG. 16B and Table 27.

Data set [2] deals with murine collagen-induced arthritis (CIA). The experiment in a line: Imaging evaluation of arthritis using micro-CT, CIA mice. The class given is in vivo. To be noted: Example 3, CIA mouse; MTX 1 mg/kg ip twice/week; Xeljanz 10 mg/kg oral once/day; MTX 1 mg/kg + Q-DDS 3 mg/mouse. The method, then:
(§1) The radiographs were 3D rendered using the Quantum FX μCT imaging system (Perkin Elmer, MA), and then the radiological score was evaluated, and the bone volume ratio (Bone volume [BV]/Tissue volume [Tissue volume; TV]) and bone surface density (Bone surface area (BS)/Bone volume (BV)) were also measured. Two or more investigators performed blind evaluation for joint destruction, and the indicators in Table 17 below were used as the scoring criteria. The average value of the researchers' blind evaluation data was used as the score, and the average score of the paw tissue was calculated as the score of each group.
as §1, with “[BV]/Tissue” for “[BV]/Tissue volume [Tissue”, “TV)” for “TV])”, “(BV)), and cortical bone thickness” for “(BV))”, “researchers” for “investigators”, “above” for “below”

The test system of data set [3] is inflammatory mediators in arthritis tissue (IL-1β, IL-6, IL-17, TNF-α, MCP-1, MIP-2, IL-2). The experiment in a line: Multiplex protein immunoassay (Luminex multi-analyte-ELISA) of inflammatory mediators in arthritic tissue. The class given is in vivo, mouse. To be noted: for ELISA values in Arthritis Paw, IL-1β, Mean / ELISA values in Arthritis Paw, IL-6, Mean / ELISA values in Arthritis Paw, IL-17, Mean / ELISA values in Arthritis Paw, TNF-α, Mean: CIA mice, Example 3, positive control groups (MTX, Xeljanz); for MCP-1, ELISA values in Arthritis Paw (pg/mL) Mean / MIP-2, ELISA values in Arthritis Paw (pg/mL) Mean: MTX 1 mg/kg ip twice/week, MTX 1 mg/kg + Q-DDS 3 mg/mouse.
From the text: In order to evaluate the inflammatory activity and confirm the mode of action of the test substance through quantitative analysis of inflammatory substances in mouse arthritis tissue and blood, inflammatory mediators were investigated at the protein level. In order to overcome the limitation of the amount of sample that can be extracted for protein analysis, a multi-analyte-ELISA (multi-analyte-ELISA) method based on Luminex technology was used to analyze the largest amount of protein in a small sample.
(§2) The mouse joint tissue obtained after treatment with the test substance in the method of Example 3.1 was pulverized through ceramic beads, and all proteins were extracted using a lysis buffer (Cat. 1713040111, Bio-Rad). Using Pro-reagent kit V, the same amount of protein (2.7 mg/mL) for each administration group was diluted ¼ and reacted with the target-binding beads in a culture dish for 30 minutes. After washing with a wash buffer, it was reacted with the target-measurement antibody for 30 minutes, and after washing with a wash buffer again, it was reacted with streptavidin-PE for 10 minutes. Thereafter, the target protein is quantitatively measured for each administration group using the Bio-Plex® 200 system (Bio-Rad). The target-binding beads were composed of a set that can be combined as needed from Bio-Plex Mouse cytokine 4-plex (IL-1β, IL-6, IL-17A, TNF-α; Cat. 171G5002M), Bio-Plex Pro Mouse Cytokine 1-plex (MCP1; Cat. 171G5019M), Bio-Plex Pro Mouse Cytokine II 1-plex (MIP2; Cat 171G6006M), and Bio-Plex Pro Mouse Cytokine 1-plea (IL-6; Cat. 171 G5007M) (all products are from Bio Rad) and were used for measurement.
For the measurement result, paw tissue weight of the mouse was corrected for the quantified target protein. For each target joint, the hind paw was mainly used, and in order to overcome the limitation of the amount of protein extracted from the joint tissue, up to 4 inflammatory mediators were measured in one well.
On the other hand, as the target protein to be measured, a representative inflammation-promoting cytokine group A (IL-1β, IL-6, IL-17, and TNF-α) among inflammatory mediators, and a chemokine group B (MCP-1 and MIP-2) among inflammatory mediators was selected to carry out the experiment. The measurement results were summarized in FIGS. 12A and 12B, and Tables 19 and 20 below. […]
as §2, with “4.1. above” for “3.1”, “171 G5002M),” for “171G5002M),”, “Cat. 171 G6006M),” for “Cat 171G6006M),”, “1-plex” for “1-plea”, “171G5007M)” for “171 G5007M)”
On the other hand, as the target protein to be measured, a representative inflammation-promoting cytokine group A (IL-1β, IL-6, IL-17, and TNF-α) among inflammatory mediators, and IL-2 and a chemokine group B (IL-2, MCP-1 and MIP-2) among inflammatory mediators were selected to carry out the experiment. The measurement results were summarized in FIGS. 18A and 18B, and Tables 29 and 30 below.
On the technique in general: An ELISA detects its analyte on a solid surface through an enzyme-linked reagent.

The test system of another data set is IL-6. The experiment in a line: Multiplex protein immunoassay of IL-6 in serum of CIA mice. The class given is in vivo, mouse. To be noted: Example 3, positive control groups (MTX, Xeljanz).
In another data set the target is T1, MD2 protein (Homo sapiens, UniProt Q9Y6Y9).
T1 construct: purchased R&D systems (Minneapolis, Minn., USA)
T1 sequence (Q9Y6Y9 19-160): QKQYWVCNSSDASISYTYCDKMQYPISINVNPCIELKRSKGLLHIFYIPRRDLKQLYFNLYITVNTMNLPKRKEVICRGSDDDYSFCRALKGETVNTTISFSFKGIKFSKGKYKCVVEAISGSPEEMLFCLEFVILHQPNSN
In words: Surface plasmon resonance analysis of binding to MD2. To be noted: binding gradually increased as the concentration of naltrexone increased. A general note: Surface plasmon resonance follows binding to a sensor surface in real time, without labels.

[4] abbreviates: Example 3, CIA mouse joint tissue, Xeljanz 10 mg/kg oral once/day.

`CN(Cc1cnc2nc(N)nc(N)c2n1)c1ccc(C(=O)N[C@@H](CCC(=O)O)C(=O)O)cc1` [Methotrexate, methotrexate]: in data set [1], the D23 body weight Mean came to 22.7 g; the D41 body weight Mean worked out at 23.8 g; the “Change of body weight (%, D23 body weight 100%) Mean” value came out at 104.7%. Further, in data set [2], the “Bone surface area/bone volume (mm^−1) Mean (micro-CT)” value stood at 6.12 mm^−1; the “Bone volume/tissue volume (%) Mean (micro-CT)” value is on record as 31.25%; the “Radiological score Mean (joint destruction, micro-CT)” value is on record as 1.67. Also, in data set [3], the “ELISA values in Arthritis Paw, IL-1β, Mean” value came to 1.05 pg/mL; the “ELISA values in Arthritis Paw, IL-6, Mean” value amounted to 1.8 pg/mL; the “ELISA values in Arthritis Paw, IL-17, Mean” value came to 2.269 pg/mL; the “ELISA values in Arthritis Paw, TNF-α, Mean” value came out at 6.54 pg/mL. In data set [3] (setting [4]), the “MCP-1, ELISA values in Arthritis Paw (pg/mL) Mean” value stood at 76.1 pg/mL and the “MIP-2, ELISA values in Arthritis Paw (pg/mL) Mean” value was found to be 4.4 pg/mL. For the same compound, the “ELISA values in Serum, IL-6, Mean” value in the data set with IL-6 worked out at 39.6 pg/mL.

Consider `O=C1CC[C@@]2(O)[C@H]3Cc4ccc(O)c5c4[C@@]2(CCN3CC2CC2)[C@H]1O5` [Naltrexone, 17-(cyclopropylmethyl)-4,5α-epoxy-3,14-dihydroxymorphinan-6-one], for which the “binding to MD2 (surface plasmon resonance)” value on MD2 protein is reported as “binds to the MD2 protein”.

As for `C[C@@H]1CCN(C(=O)CC#N)C[C@@H]1N(C)c1ncnc2[nH]ccc12` [Xeljanz ®, Tofacitinib], in data set [1], the D23 body weight Mean came to 21.7 g; the D41 body weight Mean worked out at 21.6 g; the “Change of body weight (%, D23 body weight 100%) Mean” value was found to be 99.6%. Moreover, in data set [2], the “Bone surface area/bone volume (mm^−1) Mean (micro-CT)” value came out at 6.52 mm^−1; the “Bone volume/tissue volume (%) Mean (micro-CT)” value came to 25.27%; the “Radiological score Mean (joint destruction, micro-CT)” value turned out to be 2.08. Moreover, in data set [3], the “ELISA values in Arthritis Paw, IL-1β, Mean” value is on record as 12.68 pg/mL; the “ELISA values in Arthritis Paw, IL-6, Mean” value worked out at 88.6 pg/mL; the “ELISA values in Arthritis Paw, IL-17, Mean” value is listed as 4.57 pg/mL; the “ELISA values in Arthritis Paw, TNF-α, Mean” value is 24.52 pg/mL. For the same compound, in data set [3] (setting [4]), the “MCP-1, ELISA values in Arthritis Paw (pg/mL) Mean” value is 207.9 pg/mL; the “MIP-2, ELISA values in Arthritis Paw (pg/mL) Mean” value was 126.8 pg/mL; the “IL-17 protein in arthritis tissue” value worked out at 4.57 pg/mL; the “TNF-α protein in arthritis tissue” value amounted to 24.52 pg/mL. Moreover, in the data set on IL-6, the “ELISA values in Serum, IL-6, Mean” value is on record as 94.5 pg/mL.
